Consider one compound from US7488732B2, “2-substituted pyrimidines” (BASF Aktiengesellschaft, priority 2003, dated 2009).

Experiment [1] concerns Botrytis cinerea. In words: Activity against gray mold on capsicum leaves caused by Botrytis cinerea, protective application. The class given is in vivo. Particulars: 250 ppm, protective spray on capsicum seedlings, rated after 5 days; untreated control 90% infection. As for the experimental part:
The active compounds were prepared as a stock solution with 0.25% by weight of active compound in acetone or DMSO. 1% by weight of the emulsifier Uniperol® EL (wetting agent having emulsifying and dispersing action based on ethoxylated alkylphenols) was added to this solution, and the solution was diluted with water to the desired concentration. 2. Activity against gray mold on capsicum leaves caused by Botrytis cinerea, protective application Capsicum seedlings of the cultivar “Neusiedler Ideal Elite” were, after 4-5 leaves had fully developed, sprayed to runoff point with an aqueous suspension of the active compound concentration given below. The next day, the treated plants were inoculated with a spore suspension of Botrytis cinerea comprising 1.7×10^6 spores/ml in a 2% aqueous biomalt solution. The test plants were subsequently placed in a climatized chamber at 22 to 24° C. and high atmospheric humidity. After 5 days, the extent of the fungal infection on the leaves could be determined visually in %.

The test system of experiment [2] is Sphaerotheca fuliginea. The experiment can be described thus: Activity against mildew on cucumber leaves caused by Sphaerotheca fuliginea, protective application. Particulars: 250 ppm, protective spray on cucumber seedlings, rated after 7 days; untreated control 90% infection. Type of experiment: in vivo. As to the method:
The active compounds were prepared as a stock solution with 0.25% by weight of active compound in acetone or DMSO. 1% by weight of the emulsifier Uniperol® EL (wetting agent having emulsifying and dispersing action based on ethoxylated alkylphenols) was added to this solution, and the solution was diluted with water to the desired concentration. 3. Activity against mildew on cucumber leaves caused by Sphaerotheca fuliginea, protective application Leaves of potted cucumber seedlings of the cultivar “Chinese snake” were, at the cotyledon stage, sprayed to runoff point with an aqueous suspension of the active compound concentration given below. 20 hours after the spray coating had dried on, the plants were inoculated with an aqueous spore suspension of mildew of cucumber (Sphaerotheca fuliginea). The plants were then cultivated in a greenhouse at temperatures between 20 and 24° C. and 60 to 80% relative atmospheric humidity for 7 days. The extend of the mildew development was then determined visually in % infection of the coltyledon area.

`CCC(C)Cc1nc(C#N)nc(C)c1-c1c(F)cc(F)cc1F` (centres unmarked) [I-4, 2-Cyano-4-methyl-5-(2,4,6-trifluorophenyl)-6-(2-methylbutyl)pyrimidine]: the “infection (gray mold on leaves, determined visually in %)” value in experiment [1] is listed as “no infection”. For the same compound, the “infection (mildew, determined visually in % infection of the cotyledon area)” value in experiment [2] is recorded as “no infection”.
